The source of these data is ChEMBL document CHEMBL1208730, “Heteroaryl-linked 5-(1H-benzimidazol-1-yl)-2-thiophenecarboxamides: potent inhibitors of polo-like kinase 1 (PLK1) with improved drug-like properties” (Bioorg Med Chem Lett, 2010).

Data set [1] in a line: Solubility of the compound in 20% SBE beta-cyclodextrin at pH 6. It is filed as physicochemical.
Data set [2] can be described thus: Clearance in iv dosed mouse. The note with it: in vivo. Format: ADME, organism-based.

Molecules are shown by their SMILES. Converted amounts (≈) assume the structure as drawn.

As for `C[C@@H](Oc1cc(-n2cnc3cc(-c4ccnc(NCCS(C)(=O)=O)c4)ccc32)sc1C(N)=O)c1ccccc1Cl`, in data set [1], the concentration in solution (solubility) came to 30 µg/mL (≈ 50.3 µM). As to `C[C@@H](Oc1cc(-n2cnc3cc(-c4ccnc(NCCN(C)C)c4)ccc32)sc1C(N)=O)c1ccccc1C(F)(F)F`, in data set [1], the solubility (in general, the concentration that dissolves in the medium under given conditions) was found to be 3230 µg/mL (≈ 5430 µM). Moreover, the clearance (usually the rate of elimination divided by the concentration) in data set [2] amounted to 62 mL/min/kg.

For the compound `C[C@@H](Oc1cc(-n2cnc3cc(-c4cnn(CCN5CCN(C)CC5)c4)ccc32)sc1C(N)=O)c1ccccc1Cl`, the solubility in data set [1] is 4550 µg/mL (≈ 7710 µM). For the same compound, in data set [2], the clearance was 54 mL/min/kg. In turn, `C[C@@H](Oc1cc(-n2cnc3cc(-c4ccnc(NCCO)c4)ccc32)sc1C(N)=O)c1ccccc1Cl` registered a solubility in data set [1] of 300 µg/mL (≈ 562 µM). Besides, in data set [2], the clearance was 109 mL/min/kg.

As to `C[C@@H](Oc1cc(-n2cnc3cc(-c4ccc(NC5CCN(C)CC5)nc4)ccc32)sc1C(N)=O)c1ccccc1Cl`, the concentration in solution in data set [1] (solubility) came to 2930 µg/mL (≈ 4990 µM). This compound showed a clearance in data set [2] of 19 mL/min/kg. `C[C@@H](Oc1cc(-n2cnc3cc(-c4ccnc(NC5CCN(C)CC5)c4)ccc32)sc1C(N)=O)c1ccccc1Cl` gave a solubility in data set [1] of 1050 µg/mL (≈ 1790 µM). The compound further yielded a clearance in data set [2] of 48 mL/min/kg. Taken in the same sequence, the figures for `C[C@@H](Oc1cc(-n2cnc3cc(-c4ccnc(N5CCN(C)CC5)c4)ccc32)sc1C(N)=O)c1ccccc1Cl` were 500 µg/mL (≈ 872 µM) and 52 mL/min/kg. Regarding `C[C@@H](Oc1cc(-n2cnc3cc(-c4ccncc4)ccc32)sc1C(N)=O)c1ccccc1Cl`, the concentration in solution in data set [1] (solubility) was 3 µg/mL (≈ 6.32 µM). Besides, the clearance in data set [2] is 70 mL/min/kg.

In data set [1], `C[C@@H](Oc1cc(-n2cnc3cc(-c4ccnc(N)c4)ccc32)sc1C(N)=O)c1ccccc1C(F)(F)F` came in with a solubility of 1000 µg/mL (≈ 1910 µM). The compound also yielded a clearance in data set [2] of 38 mL/min/kg. For `CCN1CCN(CCCn2cc(-c3ccc4c(c3)ncn4-c3cc(O[C@H](C)c4ccccc4Cl)c(C(N)=O)s3)cn2)CC1` the same measures were 3120 µg/mL (≈ 5050 µM) and 44 mL/min/kg. Taken in the same sequence, the figures for `C[C@@H](Oc1cc(-n2cnc3cc(-c4ccnc(N5CCN(C)CC5)c4)ccc32)sc1C(N)=O)c1ccccc1C(F)(F)F` were 870 µg/mL (≈ 1430 µM) and 32 mL/min/kg. Taken in the same sequence, the figures for `C[C@@H](Oc1cc(-n2cnc3cc(-c4cnn(C)c4)ccc32)sc1C(N)=O)c1ccccc1Cl` were 100 µg/mL (≈ 209 µM) and 15 mL/min/kg. In data set [1], `C[C@@H](Oc1cc(-n2cnc3cc(-c4cnn(CCCN(C)C)c4)ccc32)sc1C(N)=O)c1ccccc1Cl` registered a solubility of 5830 µg/mL (≈ 10600 µM). This compound yielded a clearance in data set [2] of 44 mL/min/kg. As for `C[C@@H](Oc1cc(-n2cnc3cc(-c4cnn(CCN5CCOCC5)c4)ccc32)sc1C(N)=O)c1ccccc1Cl`, the solubility in data set [1] came out at 530 µg/mL (≈ 918 µM). In data set [2], this compound returned a clearance of 82 mL/min/kg. Turning to `C[C@@H](Oc1cc(-n2cnc3cc(-c4ccnc(N5CCNCC5)c4)ccc32)sc1C(N)=O)c1ccccc1Cl`, in data set [2], the clearance was found to be 58 mL/min/kg. Turning to `C[C@@H](Oc1cc(-n2cnc3cc(-c4ccnc(N)n4)ccc32)sc1C(N)=O)c1ccccc1C(F)(F)F`, the solubility in data set [1] turned out to be 200 µg/mL (≈ 381 µM). The compound further gave a clearance in data set [2] of 70 mL/min/kg.
